According to the supplement of paper PMC6723410:
“And” between values parts separate entries of the source, which are not always exact repeats. Equal values may be shown once.

Tests used:
GUMC-403 [1] = test: AC50 for reduction of cell viability; higher = less potent; conditions: 48 h
GUMC-403 [2] = test: viability at highest tested concentration (max response) relative to DMSO (% of DMSO control); higher = less cytotoxic; conditions: library / dose series: MIPE library, 11-point 1:3 dilution, 48 h
Outline: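 Each figure stands for viability at the highest tested concentration compared with vehicle control. It was measured by CellTiter-Glo luminescence on a ViewLux after 48 h of exposure to 23 nL of pinned compound, with vehicle wells taken as 100% and empty wells as 0%. The cells were patient-derived GUMC-403 papilloma cells grown by conditional reprogramming, plated at 700/well in 5 μL F + Y medium in 1536-well plates.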

[3] = library / dose series: NPC library, 8-point 1:5 dilution

Row | SMILES | viability (GUMC-403 [2]; top concentration 46.1 µM) | also measured
1 | CC[P](CC)(CC)=[Au][S][C@@H]1O[C@H](COC(C)=O)[C@@H](OC(C)=O)[C@H](OC(C)=O)[C@H]1OC(C)=O |  | AC50 for reduction of cell viability (GUMC-403 [1]; library / dose series: MIPE library, 11-point 1:3 dilution): 9.35 µM
2 | Oc1c(Cl)cc(Cl)c(Cl)c1Cc1c(O)c(Cl)cc(Cl)c1Cl |  | AC50 for reduction of cell viability (GUMC-403 [1]; [3]): 16.8 µM
3 | CCCCCCCCCCCCCC[N+](C)(C)C.[Br-] |  | AC50 for reduction of cell viability (GUMC-403 [1]; [3]): 26.6 µM
4 | CCN(CC)CCCC(C)Nc1c2ccc(Cl)cc2nc2ccc(OC)cc12.Cl.Cl.O.O (stereo unspecified) |  | AC50 for reduction of cell viability (GUMC-403 [1]; [3]): 21.1 µM
5 | CC(C)C[C@H](NC(=O)[C@H](CCc1ccccc1)NC(=O)CN1CCOCC1)C(=O)N[C@@H](Cc1ccccc1)C(=O)N[C@@H](CC(C)C)C(=O)[C@@]1(C)CO1 |  | AC50 for reduction of cell viability (GUMC-403 [1]; [3]): 1.19 µM
6 | CC[n+]1c(-c2ccccc2)c2cc(N)ccc2c2ccc(N)cc21.[Br-] |  | AC50 for reduction of cell viability (GUMC-403 [1]; [3]): 9.44 µM
7 | C[C@@]12C(=O)OC(=O)[C@]1(C)C1CCC2O1 |  | AC50 for reduction of cell viability (GUMC-403 [1]; [3]): 3.35 µM
8 | C[C@@H]1O[C@@H](O[C@H]2C[C@@H](O)[C@]3(CO)[C@H]4[C@H](O)C[C@]5(C)[C@@H](C6=CC(=O)OC6)CC[C@]5(O)[C@@H]4CC[C@]3(O)C2)[C@H](O)[C@H](O)[C@H]1O |  | AC50 for reduction of cell viability (GUMC-403 [1]; [3]): 0.075 µM
9 | CCCCCCCCCCCCCCCC[N+](C)(C)C.[Br-] |  | AC50 for reduction of cell viability (GUMC-403 [1]; [3]): 21.1 µM
10 | Cc1cc2nc3ccc(N(C)C)cc3[s+]c2cc1N.[Cl-] |  | AC50 for reduction of cell viability (GUMC-403 [1]; [3]): 18.8 µM
11 | O=C1NCCN1CCN1CCC(c2cn(-c3ccc(F)cc3)c3ccc(Cl)cc23)CC1 |  | AC50 for reduction of cell viability (GUMC-403 [1]; [3]): 2.66 µM
12 | [Cl-].C/[N+](C)=C1\C=C\C(C=C1)=C(/c2ccc(cc2)N(C)C)c3ccc(cc3)N(C)C |  | AC50 for reduction of cell viability (GUMC-403 [1]; [3]): 13.3 µM
13 | CN(C)C(=S)SSC(=S)N(C)C |  | AC50 for reduction of cell viability (GUMC-403 [1]; [3]): 18.8 µM
14 | CN(C)C(=S)SC(=S)N(C)C |  | AC50 for reduction of cell viability (GUMC-403 [1]; [3]): 5.31 µM
15 | Cc1cc(OCCOCC[N+](C)(C)Cc2ccccc2)ccc1C(C)(C)CC(C)(C)C.[Cl-] |  | AC50 for reduction of cell viability (GUMC-403 [1]; [3]): 23.7 µM
16 | COc1cccc2c1C(=O)c1c(O)c3c(c(O)c1C2=O)C[C@@](O)(C(=O)CO)CC3OC1CC(N2CCOC(OC)C2)C(O)C(C)O1 (stereo partly specified) |  | AC50 for reduction of cell viability (GUMC-403 [1]; [3]): 0.0211 µM
17 | C[C@H]1O[C@@H](O[C@H]2CC[C@@]3(C)[C@H](CC[C@@H]4[C@@H]3C[C@@H](O)[C@]3(C)[C@@H](C5=CC(=O)OC5)CC[C@]43O)C2)C[C@H](O)[C@@H]1O[C@H]1C[C@H](O)[C@H](O[C@H]2C[C@H](O)[C@H](O[C@@H]3O[C@H](CO)[C@@H](O)[C@H](O)[C@H]3O)[C@@H](C)O2)[C@@H](C)O1 |  | AC50 for reduction of cell viability (GUMC-403 [1]; [3]): 0.106 µM
18 | C[C@H]1O[C@@H](O[C@H]2[C@@H](O)C[C@H](O[C@H]3[C@@H](O)C[C@H](O[C@H]4CC[C@@]5(C)[C@H](CC[C@@H]6[C@@H]5CC[C@]5(C)[C@@H](C7=CC(=O)OC7)CC[C@]65O)C4)O[C@@H]3C)O[C@@H]2C)C[C@H](O)[C@@H]1O |  | AC50 for reduction of cell viability (GUMC-403 [1]; [3]): 0.237 µM
19 | CCOC(=O)\C1=C\[C@@H](OC(CC)CC)[C@H](NC(C)=O)[C@@H](N)C1 | 123 | 
20 | CCOc1cc(/C=C2/C(=O)N(c3ccccc3)N=C2C)cc(Cl)c1OCC(=O)OC | 99.2 | 
21 | OC1=CC2=C(C=C1)C(=O)\C(=C(O2)\C3=CC(=C(O)C=C3)O)O | 72.6 | 
22 | CC(C)(C)c1[nH]cnc1/C=c1\[nH]c(=O)/c(=C/c2ccccc2)[nH]c1=O |  | viability (GUMC-403 [2]; top concentration 92.2 µM): 95.3
23 | CC1(C)CC(=O)c2c(C(F)(F)F)nn(-c3ccc(C(N)=O)c(NC4CCC(OC(=O)CN)CC4)c3)c2C1 (stereo unspecified) | 84.3 | 
24 | C[S+](=O)([O-])Oc1ccc2c(NC(N)=O)c(C(=O)c3ccc(Cl)cc3Cl)oc2c1 | 108 | 
25 | COC1=CC=C(C=C1)C/2=C/OC3=CC(=CC=C3C2=O)O | 95.7 | 
26 | S=P(N1CC1)(N1CC1)N1CC1 | 115 | 

Row | SMILES | viability (GUMC-403 [2]; top concentration 46.1 µM) | also measured
27 | C[C@]\1(CCS\C(=N1)N)C2=CC(=C(F)C=C2F)C3=CN=CN=C3 | 80.2 | 
28 | Cc1nc2ccc(CN(C)c3ccc(C(=O)N[C@@H](CCC(=O)O)C(=O)O)s3)cc2c(=O)[nH]1 | 116 | 
29 | CNCCCC12CCC(c3ccccc31)c1ccccc12 | 105 | 
30 | ClC1=C[NH]N=C1C\2NC(=N\C3=C2C(=O)CCC3)/NC4=NC5=CC=CC=C5O4 (stereo unspecified) | 124 | 
31 | CN(CC(=O)N(Cc1ccc(C2CCCCC2)cc1)c1ccc(C(=O)O)c(O)c1)[S+](=O)([O-])c1c(F)c(F)c(F)c(F)c1F | 112 | 
32 | CO[C@H]1/C=C/O[C@@]2(C)Oc3c(C)c(O)c4c(c3C2=O)C2=NC3(CCN(CC(C)C)CC3)NC2=C(NC(=O)/C(C)=C\C=C\[C@H](C)[C@H](O)[C@@H](C)[C@@H](O)[C@@H](C)[C@H](OC(C)=O)[C@@H]1C)C4=O | 118 | 
33 | N#C/C(=C\c1ccc(O)c(O)c1)C(=O)NCc1ccccc1 | 110 | 
34 | CCCn1c(=O)c2[nH]c(-c3cnn(Cc4cccc(C(F)(F)F)c4)c3)nc2n(CC)c1=O | 119 | 
35 | CN(N=O)C(=O)N[C@H]1C(O)OC(CO)[C@@H](O)[C@@H]1O (stereo partly specified) | 113 | 
36 | COc1cc(Nc2ncc(F)c(Nc3ccc4c(n3)NC(=O)C(C)(C)O4)n2)cc(OC)c1OC | 89.6 | 
37 | Cn1c(=O)c2c(ncn2CC(O)CO)n(C)c1=O (stereo unspecified) | 138 | 
38 | CN[C@H]1CCC2=CC(=C(OC)C(=C2C/3=C/C=C(OC)\C(=O)/C=C13)OC)OC | 100 | 
39 | CN1CC(=O)N2[C@H](c3ccc4c(c3)OCO4)c3[nH]c4ccccc4c3C[C@@H]2C1=O | 91.5 | 
40 | O=NN(CCCl)C(=O)NC1CCCCC1 | 124 | 
41 | Cc1ccc(CN2CCNCC2)cc1NC(=O)CNc1ccc(F)c(F)c1 | 98.9 | 
42 | CN1C(=O)\C(=C/C2=C1N=C(NC3CCOCC3)N=C2)OC4=C(F)C=C(F)C=C4 | 85.5 | 
43 | Clc1ccccc1C(c1ccccc1)(c1ccccc1)n1cccn1 | 105 | 
44 | C=C(C)[C@H]1Cc2c(ccc3c2O[C@@H]2COc4cc(OC)c(OC)cc4[C@@H]2C3=O)O1 | 112 | 
45 | C[C@]12CCC(=O)C(O)=C1CC[C@@H]1[C@@H]2CC[C@]2(C)C(=O)CC[C@@H]12 | 113 | 
46 | COc1ccc([C@@H]2CC(=O)c3c(O)cc(O[C@@H]4O[C@H](CO[C@@H]5O[C@@H](C)[C@H](O)[C@@H](O)[C@H]5O)[C@@H](O)[C@H](O)[C@H]4O)cc3O2)cc1O | 94.4 and 102 | 
47 | Cc1[nH]c(/C=C2\C(=O)Nc3ccccc32)c(C)c1CCC(=O)O | 98.9 | 
48 | O=C(Nc1ccc(OC(F)(F)F)cc1)c1sccc1NCc1ccnc2ccccc12 | 91.2 | 
49 | CN(CC#C)C/C1=C/C2=CC=CC=C2OC3=CC=CC=C13 | 81.4 | 
50 | Cc1ccc(Nc2nccc(N(C)c3ccc4c(C)n(C)nc4c3)n2)cc1[S+](N)(=O)[O-] | 117 | 
51 | COc1cc2nc(N3CCN(C(=O)C4CCCO4)CC3)nc(N)c2cc1OC (stereo unspecified) | 126 | 
52 | O=C(C1CC1)N1CC[C@@H](Cn2c(-c3ccc(-c4ccc5occc5c4)cc3)nc3cnccc32)C1 | 124 | 

Row | SMILES | viability (GUMC-403 [2]; top concentration 46.1 µM) | also measured
53 | CC1(C)CC\C2=C(/O1)C3=C(C=CC=C3)C(=O)C2=O | 123 | 
54 | Nc1nc(Cl)nc2c1ncn2[C@@H]1O[C@H](CO)[C@@H](O)[C@@H]1F | 104 | 
55 | CC1(C)CCC(=C(\C1)C2=CC=C(Cl)C=C2)/CN3CCN(CC3)C4=CC(=C(C=C4)C(=O)N[S+]([O-])(=O)C5=CC=C(NCC6CCOCC6)C(=C5)[N+]([O-])=O)OC7=CN=C8[NH]C=CC8=C7 | 105 | 
56 | Oc1cc(-c2nc(-c3ccccc3)[nH]c2-c2ccncc2)ccc1Cl | 91.4 | 
57 | CN(C(=O)c1ccc(F)cc1C(F)(F)F)C1CCN(c2nnc(-c3ccnn3C)c3ccccc23)CC1 | 78.1 | 
58 | C[C@@H]1CC[C@H]2[C@@H](C)C(=O)O[C@@H]3O[C@@]4(C)CC[C@@H]1[C@]32OO4 | 109 | 
59 | CC(C)OC1=CC=C2C(=C1)O\C=C(/C2=O)C3=CC=CC=C3 | 111 | 
60 | C[C@]12CC[C@H]3[C@@H](CC[C@H]4NC(=O)\C=C/[C@]34C)[C@@H]1CC[C@@H]2C(=O)NC5=CC(=CC=C5C(F)(F)F)C(F)(F)F | 96.3 | 
61 | CC1COC2=C3N1\C=C(C(O)=O)/C(=O)C3=CC(=C2N4CCN(C)CC4)F (stereo unspecified) | 105 | 
62 | Clc1ccc(C2(c3ccc(-c4cn[nH]c4)cc3)CCNCC2)cc1 | 59.9 | 
63 | CC(C)(C)c1cc(C(=O)O)c(NC(=O)Nc2ccc3[nH]ncc3c2)s1 | 87.6 | 
64 | CC(C)(C)C1=NC2=C([NH]1)C3=CC=C(F)C=C3C4=C2\C=C/NC4=O | 133 | 
65 | O=C(Nc1ncc(-c2cc(C(F)F)nn2-c2c(Cl)cccc2Cl)s1)C1CC1 | 84.9 | 
66 | COC1=CC2=C(C=C1CC3=C(F)C(=CC=C3)Cl)C(=O)\C(=C/N2[C@H](CO)C(C)C)C(O)=O | 124 | 
67 | CN1CCN(CC1)C/2=N/C3=CC=CC=C3NC4=C2C=C(C)S4 | 117 | 
68 | CC(=O)OCC(=O)[C@@]1(O)CC[C@H]2[C@@H]3CCC/4=C/C(=O)/C=C\[C@]4(C)[C@H]3[C@@H](O)C[C@]12C | 123 | 
69 | ClC1=CC=C(C=C1)C(C#N)C2=C(Cl)C=C(C=C2Cl)N3\N=C/C(=O)NC3=O (stereo unspecified) | 125 | 
70 | O=C(Nc1ccccc1Br)N[C@@H]1CCN(c2ccc(C(F)(F)F)cn2)C1 | 114 | 
71 | O=C(CCCCCCC(=O)Nc1ccc([C@H]2O[C@@H](CSc3nc(-c4ccccc4)c(-c4ccccc4)o3)C[C@@H](c3ccc(CO)cc3)O2)cc1)NO | 115 | 
72 | CNC1CCC(N(Cc2cccc(-c3ccncc3)c2)C(=O)c2sc3c(F)ccc(F)c3c2Cl)CC1 (stereo unspecified) | 75.5 | 
73 | CN(C)CCN1C(=O)c2cccc3cc(N)cc(c23)C1=O | 62.2 | 
74 | ClC/1=C(NCCN2CCOCC2)/C(=O)C3=C(C=CC=N3)C1=O | 2.43 | 
75 | CN(C)C1=C(Br)C=C(C=C1)C\2NC3=C(\C4=C2C(=O)CC(C)(C)C4)C5=CC=CC=C5C=C3 (stereo unspecified) | 99.8 | 
76 | O=C(c1ccccc1)c1ccc2n1CCC2C(=O)O (stereo unspecified) | 75.8 | 
